Results on 25 compounds are retold here after US9187472B2 (AbbVie Inc., priority 2012, dated 2015).

The term IC50 denotes the concentration that gives 50% inhibition.

In assay [1] the target is NAMPT (human, recombinant, C-terminally His-tagged) (Homo sapiens, UniProt P43490). The assay can be described thus: Time-Resolved Fluorescence Resonance Energy Transfer (TR-FRET) Binding Assay of NAMPT. Conditions: without substrates; 6.8 nM NAMPT, 200 nM probe, 3 hours equilibration. An outline of the steps:
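11-pt half-log compound series; final 6.8 nM NAMPT, 200 nM OG488 nicotinamide-competitive probe, 1 nM Tb-anti-His Ab, 2% DMSO, HEPES pH 7.5/NaCl/MgCl2/DTT/glycerol buffer. 3 h RT equilibration. Em520/Em495 ratio (Ex 337 nm), control-normalized, 4-parameter fit → IC50.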
(Time-resolved FRET reads energy transfer from a long-lived donor to a nearby acceptor.)

Assay [2] deals with NAMPT (Homo sapiens, UniProt P43490). The assay can be described thus: TR-FRET Binding Assay of NAMPT with PRPP. Particulars: with 200 μM PRPP and 2.5 mM ATP; 2 nM NAMPT, 2 nM probe, 16 hours equilibration. An outline of the steps:
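TR-FRET probe-displacement binding with 2 nM NAMPT, 2 nM probe and 1 nM Tb-anti-His antibody, run in the presence of 200 μM PRPP and 2.5 mM ATP at 2% DMSO. Equilibrated 16 hours before reading so test compounds could undergo enzymatic modification.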

Assay [3] deals with PC3 cells. The assay can be described thus: NAMPT Cell Proliferation Assay. The format is cell-based. Particulars: Homo sapiens, PC-3, 120 h, 5 days incubation, cell viability by Cell Titer Glo. An outline of the steps:
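Cell Titer Glo viability after 5-day exposure (37° C, 5% CO2); PC3, 500 cells/well, RPMI + 10% heat-inactivated FBS, overnight attachment before dosing. Dose range 10 μM to 1×10^−5 μM, 10-fold steps. IC50 = sigmoidal fit of % inhibition.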
(In ATP-based viability assays light output follows the ATP content of the culture.)

Where only a bound is given, the exact number is not on record here.

NAMPT, sequence (P43490 whole entry): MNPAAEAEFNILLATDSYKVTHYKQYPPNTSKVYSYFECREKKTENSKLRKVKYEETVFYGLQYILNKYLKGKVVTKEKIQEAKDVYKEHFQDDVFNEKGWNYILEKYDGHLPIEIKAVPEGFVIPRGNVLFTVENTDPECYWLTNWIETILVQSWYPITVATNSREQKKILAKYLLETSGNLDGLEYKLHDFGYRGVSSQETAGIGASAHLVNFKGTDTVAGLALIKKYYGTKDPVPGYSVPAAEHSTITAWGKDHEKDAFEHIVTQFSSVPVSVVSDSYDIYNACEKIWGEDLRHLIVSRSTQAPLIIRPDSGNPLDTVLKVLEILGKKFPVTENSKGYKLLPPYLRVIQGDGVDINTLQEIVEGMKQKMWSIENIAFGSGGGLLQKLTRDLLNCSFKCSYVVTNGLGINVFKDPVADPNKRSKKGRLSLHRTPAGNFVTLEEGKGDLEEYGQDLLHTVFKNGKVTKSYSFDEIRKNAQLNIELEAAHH
NAMPT (human, recombinant, C-terminally His-tagged), sequence (P43490 whole entry): as above

For `O=C(NCc1ccn2ccnc2c1)c1ccc(O[C@@H]2CCN(C(=O)c3ccccc3)C2)cc1` [Example 493, 4-{[(3R)-1-benzoylpyrrolidin-3-yl]oxy}-N-(imidazo[1,2-a]pyridin-7-ylmethyl)benzamide], the 50% inhibitory concentration (IC50) stood at 1290 nM in assay [1], 0.455 nM in assay [2] and 486 nM in assay [3].

Take `O=C(Nc1ccc(C2=CCN(C(=O)CN3CCOCC3)CC2)cc1)Nc1ccc2nccn2c1` [Example 30, 1-imidazo[1,2-a]pyridin-6-yl-3-{4-[1-(morpholin-4-ylacetyl)-1,2,3,6-tetrahydropyridin-4-yl]phenyl}urea]: the IC50 was determined as 1180 nM in assay [1], 0.785 nM in assay [2] and 38.4 nM in assay [3].

On to `O=C(NCc1ccn2ccnc2c1)Nc1ccc(OC2CN(C(=O)C3CCOCC3)C2)cc1` [Example 433, 1-(imidazo[1,2-a]pyridin-7-ylmethyl)-3-(4-{[1-(tetrahydro-2H-pyran-4-ylcarbonyl)azetidin-3-yl]oxy}phenyl)urea], for which the IC50 was 200 nM in assay [1], 0.248 nM in assay [2] and 64.4 nM in assay [3].

Turning to `Cc1noc(C)c1CC(=O)N(C[C@H]1CCCO1)c1ncc(C(=O)NCc2ccn3ccnc3c2)s1` [Example 199, 2-{[(3,5-dimethyl-1,2-oxazol-4-yl)acetyl][(2R)-tetrahydrofuran-2-ylmethyl]amino}-N-(imidazo[1,2-a]pyridin-7-ylmethyl)-1,3-thiazole-5-carboxamide], the IC50 in assay [1] is 9.76 nM; in assay [2], 0.311 nM; in assay [3], 0.539 nM.

Consider `O=C(NCc1ccn2ccnc2c1)Nc1ccc(O[C@@H]2CCN(C(=O)c3ccc(F)cc3)C2)cc1` [Example 691, 1-(4-{[(3R)-1-(4-fluorobenzoyl)pyrrolidin-3-yl]oxy}phenyl)-3-(imidazo[1,2-a]pyridin-7-ylmethyl)urea], for which the IC50 in assay [1] was 169 nM; in assay [2], 0.67 nM; in assay [3], 77.7 nM.

For the compound `O=C(NCc1ccn2ccnc2c1)c1cnc(N2C(=O)OC[C@@H]2COCc2ccccc2)s1` [Example 188, 2-{(4S)-4-[(benzyloxy)methyl]-2-oxo-1,3-oxazolidin-3-yl}-N-(imidazo[1,2-a]pyridin-7-ylmethyl)-1,3-thiazole-5-carboxamide], the IC50 is above 10000 nM in assay [1], 5.09 nM in assay [2] and 6290 nM in assay [3].

With `Cn1cccc1C(=O)N1CCC(c2ccc(C(=O)NCc3ccn4ccnc4c3)cc2)CC1` [Example 533, N-(imidazo[1,2-a]pyridin-7-ylmethyl)-4-{1-[(1-methyl-1H-pyrrol-2-yl)carbonyl]piperidin-4-yl}benzamide], the IC50 in assay [1] worked out at 101 nM; in assay [2] it was 0.169 nM; in assay [3] it was 17.4 nM.

Regarding `O=C(NCc1ccc2nccn2c1)c1cnc(N(CC2CCCO2)C(=O)Cc2cscn2)s1` (stereo not drawn) [Example 191, N-(imidazo[1,2-a]pyridin-6-ylmethyl)-2-[(tetrahydrofuran-2-ylmethyl)(1,3-thiazol-4-ylacetyl)amino]-1,3-thiazole-5-carboxamide], the IC50 in assay [1] came out at 821 nM; in assay [2], 6.09 nM; in assay [3] it was 14.3 nM.

With `O=C(NCc1ccn2ccnc2c1)c1ccc(C2CCN(C(=O)c3ccccn3)C2)cc1` (stereo not drawn) [Example 611, N-(imidazo[1,2-a]pyridin-7-ylmethyl)-4-[1-(pyridin-2-ylcarbonyl)pyrrolidin-3-yl]benzamide], the IC50 was 288 nM in assay [1], 0.621 nM in assay [2] and 70.9 nM in assay [3].

Take `CC(C)OCC(=O)N1CCC(Oc2ccc(NC(=O)NCc3ccn4ccnc4c3)cc2)CC1` [Example 446, 1-(imidazo[1,2-a]pyridin-7-ylmethyl)-3-[4-({1-[(propan-2-yloxy)acetyl]piperidin-4-yl}oxy)phenyl]urea]: the IC50 turned out to be 388 nM in assay [1], 0.253 nM in assay [2] and 61.2 nM in assay [3].

Regarding `CC(C)OCC(=O)Nc1ccc(NC(=O)NCc2ccn3ccnc3c2)cc1` [Example 282, N-(4-{[(imidazo[1,2-a]pyridin-7-ylmethyl)carbamoyl]amino}phenyl)-2-(propan-2-yloxy)acetamide], the IC50 in assay [1] was found to be 76.5 nM; in assay [2], 0.297 nM; in assay [3] it was 44.7 nM.

In the case of `Cc1cc(CC(=O)N(C[C@H]2CCCO2)c2ncc(C(=O)NCc3ccn4ccnc4c3)s2)nn1C` [Example 197, 2-{[(1,5-dimethyl-1H-pyrazol-3-yl)acetyl][(2R)-tetrahydrofuran-2-ylmethyl]amino}-N-(imidazo[1,2-a]pyridin-7-ylmethyl)-1,3-thiazole-5-carboxamide], the figures for the IC50 in assay [1], in assay [2] and in assay [3] were 1570 nM, 0.505 nM and 25.4 nM, respectively.

`CC(C)(C)OC(=O)N1CC(Oc2ccc(C(=O)NCc3ccn4ccnc4c3)cc2)C1` [Example 474, tert-butyl 3-{4-[(imidazo[1,2-a]pyridin-7-ylmethyl)carbamoyl]phenoxyl}azetidine-1-carboxylate]: the IC50 in assay [1] turned out to be 1980 nM; in assay [2], 0.362 nM; in assay [3], 879 nM.

For the compound `CCc1c(-c2ccc(C(=O)NCc3ccn4ccnc4c3)s2)cnn1CC1CCCCC1` [Example 272, 5-[1-(cyclohexylmethyl)-5-ethyl-1H-pyrazol-4-yl]-N-(imidazo[1,2-a]pyridin-7-ylmethyl)thiophene-2-carboxamide], the IC50 in assay [1] amounted to 27.2 nM; in assay [2] it was 0.417 nM; in assay [3] it was 15.6 nM.

Consider `O=C(NCc1ccn2ccnc2c1)Nc1ccc(O[C@@H]2CCN(C(=O)CC3CCOCC3)C2)cc1` [Example 338, 1-(imidazo[1,2-a]pyridin-7-ylmethyl)-3-(4-{[(3R)-1-(tetrahydro-2H-pyran-4-ylacetyl)pyrrolidin-3-yl]oxy}phenyl)urea], for which the IC50 in assay [1] was 609 nM; in assay [2] it was 0.394 nM; in assay [3] it was 81 nM.

As to `COCCNC(=O)N(CC1CCCO1)c1ncc(C(=O)NCc2ccn3ccnc3c2)s1` (stereo not drawn) [Example 138, N-(imidazo[1,2-a]pyridin-7-ylmethyl)-2-{[(2-methoxyethyl)carbamoyl](tetrahydrofuran-2-ylmethyl)amino}-1,3-thiazole-5-carboxamide], the IC50 in assay [1] was 80.7 nM; in assay [2], 0.424 nM; in assay [3] it was 3.83 nM.

Turning to `O=C(NCc1ccn2ccnc2c1)c1ccc(C2CN(C(=O)c3cscn3)C2)cc1` [Example 637, N-(imidazo[1,2-a]pyridin-7-ylmethyl)-4-[1-(1,3-thiazol-4-ylcarbonyl)azetidin-3-yl]benzamide], the IC50 came out at 360 nM in assay [1], 0.421 nM in assay [2] and 81.1 nM in assay [3].

As for `O=C(Nc1ccc(NC(=O)C2CCS(=O)(=O)CC2)cc1)Nc1ccc2nccn2c1` [Example 49], the IC50 is 442 nM in assay [1], 0.317 nM in assay [2] and 7040 nM in assay [3].

Consider `CC(C)(C)OC(=O)N1CCC(c2ccc(NC(=O)NCc3ccn4ncnc4c3)cc2)CC1` [Example 565, tert-butyl 4-(4-{[([1,2,4]triazolo[1,5-a]pyridin-7-ylmethyl)carbamoyl]amino}phenyl)piperidine-1-carboxylate], for which the results for the half-maximal inhibitory concentration (IC50) in assay [1], in assay [2] and in assay [3] were 215 nM, 5.38 nM and 891 nM, respectively.

Consider `O=C(NCc1ccn2ccnc2c1)c1ccc(C2CCN(C(=O)c3cccnc3)CC2)cc1` [Example 537, N-(imidazo[1,2-a]pyridin-7-ylmethyl)-4-[1-(pyridin-3-ylcarbonyl)piperidin-4-yl]benzamide], for which the values for the half-inhibitory concentration (IC50) in assay [1], in assay [2] and in assay [3] were 461 nM, 0.23 nM and 43.1 nM, respectively.

On to `O=C(Cc1ccn2ccnc2c1)Nc1ccc(NC(=O)CC2CCCC2)cc1` [Example 739, 2-cyclopentyl-N-{4-[(imidazo[1,2-a]pyridin-7-ylacetyl)amino]phenyl}acetamide], for which the IC50 amounted to 37.7 nM in assay [1], 0.672 nM in assay [2] and 67.6 nM in assay [3].

Consider `CC(C)(O)C(=O)N1CCC(c2ccc(C(=O)NCc3ccn4ccnc4c3)cc2)C1` (stereo not drawn) [Example 372, 4-[1-(2-hydroxy-2-methylpropanoyl)pyrrolidin-3-yl]-N-(imidazo[1,2-a]pyridin-7-ylmethyl)benzamide], for which the IC50 was determined as 2440 nM in assay [1], 0.46 nM in assay [2] and 868 nM in assay [3].

Consider `O=C(CC1CCCC1)Nc1ccc(C(=O)NCc2ccn3ccnc3c2)cc1` [Example 117, 4-[(cyclopentylacetyl)amino]-N-(imidazo[1,2-a]pyridin-7-ylmethyl)benzamide], for which the 50% inhibitory concentration (IC50) in assay [1] was found to be 392 nM; in assay [2], 0.436 nM; in assay [3], 63.9 nM.

For the compound `CC(C)CC(=O)N(Cc1ccc(C#N)cc1)c1ncc(C(=O)Nc2ccc3nccn3c2)s1` [Example 53, 2-[(4-cyanobenzyl)(3-methylbutanoyl)amino]-N-(imidazo[1,2-a]pyridin-6-yl)-1,3-thiazole-5-carboxamide], the results for the IC50 in assay [1], in assay [2] and in assay [3] were 4450 nM, 14.4 nM and 3300 nM, respectively.

`O=C(NCc1ccn2ccnc2c1)c1ccc(C2CN(C(=O)c3ccco3)C2)cc1` [Example 639, 4-[1-(furan-2-ylcarbonyl)azetidin-3-yl]-N-(imidazo[1,2-a]pyridin-7-ylmethyl)benzamide]: the IC50 was determined as 215 nM in assay [1], 0.713 nM in assay [2] and 58.1 nM in assay [3].
